Reference: ChEMBL document CHEMBL4507279, “Data for DCP probe BI-9627” (2021)

What was measured:
[1] = target: Alpha-2B adrenergic receptor (Homo sapiens) (UniProt P18089); conditions: Compound concentration 10.0 uM
[2] = target: Megakaryocyte-associated tyrosine-protein kinase (Homo sapiens) (UniProt P42679); conditions: Compound concentration 1000.0 nM
[3] = target: Mast/stem cell growth factor receptor Kit (Homo sapiens) (UniProt P10721); conditions: Compound concentration 1000.0 nM
[4] = target: Mitogen-activated protein kinase 13 (Homo sapiens) (UniProt O15264); conditions: Compound concentration 1000.0 nM
[5] = target: Tyrosine-protein kinase JAK1 (Homo sapiens) (UniProt P23458); conditions: Compound concentration 1000.0 nM
[6] = target: Mitogen-activated protein kinase kinase kinase 19 (Homo sapiens) (UniProt Q56UN5); conditions: Compound concentration 1000.0 nM
[7] = target: Tyrosine-protein kinase Lyn (Homo sapiens) (UniProt P07948); conditions: Compound concentration 1000.0 nM
[8] = target: Calcium/calmodulin-dependent protein kinase type IV (Homo sapiens) (UniProt Q16566); conditions: Compound concentration 1000.0 nM
[9] = target: Homeodomain-interacting protein kinase 4 (Homo sapiens) (UniProt Q8NE63); conditions: Compound concentration 1000.0 nM
[10] = target: Calcium/calmodulin-dependent protein kinase type 1 (Homo sapiens) (UniProt Q14012); conditions: Compound concentration 1000.0 nM
[11] = target: Serine/threonine-protein kinase TNNI3K (Homo sapiens) (UniProt Q59H18); conditions: Compound concentration 1000.0 nM
[12] = target: Calcium/calmodulin-dependent protein kinase type 1G (Homo sapiens) (UniProt Q96NX5); conditions: Compound concentration 1000.0 nM
[13] = target: Cyclin-dependent kinase 13 (Homo sapiens) (UniProt Q14004); conditions: Compound concentration 1000.0 nM
[14] = target: Ephrin type-A receptor 2 (Homo sapiens) (UniProt P29317); conditions: Compound concentration 1000.0 nM
[15] = target: Mitogen-activated protein kinase kinase kinase 5 (Homo sapiens) (UniProt Q99683); conditions: Compound concentration 1000.0 nM
[16] = target: Cyclin-dependent kinase 17 (Homo sapiens) (UniProt Q00537); conditions: Compound concentration 1000.0 nM
[17] = target: Mitogen-activated protein kinase kinase kinase 4 (Homo sapiens) (UniProt Q9Y6R4); conditions: Compound concentration 1000.0 nM
[18] = target: Serine/threonine-protein kinase MAK (Homo sapiens) (UniProt P20794); conditions: Compound concentration 1000.0 nM
[19] = target: MAP kinase-interacting serine/threonine-protein kinase 1 (Homo sapiens) (UniProt Q9BUB5); conditions: Compound concentration 1000.0 nM
[20] = target: Mitogen-activated protein kinase 14 (Homo sapiens) (UniProt Q16539); conditions: Compound concentration 1000.0 nM
[21] = target: Focal adhesion kinase 1 (Homo sapiens) (UniProt Q05397); conditions: Compound concentration 1000.0 nM
[22] = target: Serine/threonine-protein kinase STK11 (Homo sapiens) (UniProt Q15831); conditions: Compound concentration 1000.0 nM
[23] = system: ALK tyrosine kinase receptor (Homo sapiens), Q9UM73 [C1156Y]; conditions: Compound concentration 1000.0 nM
[24] = target: Phosphatidylinositol 4-phosphate 5-kinase type-1 gamma (Homo sapiens) (UniProt O60331); conditions: Compound concentration 1000.0 nM
[25] = target: LIM domain kinase 1 (Homo sapiens) (UniProt P53667); conditions: Compound concentration 1000.0 nM
[26] = target: Serine/threonine-protein kinase N1 (Homo sapiens) (UniProt Q16512); conditions: Compound concentration 1000.0 nM
[27] = target: Tyrosine-protein kinase Fyn (Homo sapiens) (UniProt P06241); conditions: Compound concentration 1000.0 nM
[28] = target: Vascular endothelial growth factor receptor 2 (Homo sapiens) (UniProt P35968); conditions: Compound concentration 1000.0 nM
[29] = target: Hepatocyte growth factor receptor (Homo sapiens) (UniProt P08581); conditions: Compound concentration 1000.0 nM
[30] = target: Protein kinase C eta type (Homo sapiens) (UniProt P24723); conditions: Compound concentration 1000.0 nM
[31] = target: Serine/threonine-protein kinase Nek10 (Homo sapiens) (UniProt Q6ZWH5); conditions: Compound concentration 1000.0 nM
[32] = system: Proto-oncogene tyrosine-protein kinase receptor Ret (Homo sapiens), P07949 [V804M]; conditions: Compound concentration 1000.0 nM
[33] = target: Interferon-induced, double-stranded RNA-activated protein kinase (Homo sapiens) (UniProt P19525); conditions: Compound concentration 1000.0 nM
[34] = target: Casein kinase I isoform epsilon (Homo sapiens) (UniProt P49674); conditions: Compound concentration 1000.0 nM
[35] = target: Serine/threonine-protein kinase ULK3 (Homo sapiens) (UniProt Q6PHR2); conditions: Compound concentration 1000.0 nM
[36] = system: Mast/stem cell growth factor receptor Kit (Homo sapiens), P10721 [A829P]; conditions: Compound concentration 1000.0 nM
[37] = target: Tyrosine-protein kinase Fes/Fps (Homo sapiens) (UniProt P07332); conditions: Compound concentration 1000.0 nM
[38] = system: Phosphatidylinositol 4,5-bisphosphate 3-kinase catalytic subunit alpha isoform (Homo sapiens), P42336 [E542K]; conditions: Compound concentration 1000.0 nM
[39] = target: Macrophage colony-stimulating factor 1 receptor (Homo sapiens) (UniProt P07333); conditions: Compound concentration 1000.0 nM
[40] = target: Mitogen-activated protein kinase kinase kinase 13 (Homo sapiens) (UniProt O43283); conditions: Compound concentration 1000.0 nM
[41] = target: Serine/threonine-protein kinase Nek11 (Homo sapiens) (UniProt Q8NG66); conditions: Compound concentration 1000.0 nM
[42] = target: Myosin-IIIb (Homo sapiens) (UniProt Q8WXR4); conditions: Compound concentration 1000.0 nM
[43] = target: Cyclin-dependent kinase 5 (Homo sapiens) (UniProt Q00535); conditions: Compound concentration 1000.0 nM
[44] = target: Serine/threonine-protein kinase TBK1 (Homo sapiens) (UniProt Q9UHD2); conditions: Compound concentration 1000.0 nM
[45] = target: Serine/threonine-protein kinase 17B (Homo sapiens) (UniProt O94768); conditions: Compound concentration 1000.0 nM

Chain of Serine/threonine-protein kinase ULK3 (Homo sapiens) (Q6PHR2 whole entry): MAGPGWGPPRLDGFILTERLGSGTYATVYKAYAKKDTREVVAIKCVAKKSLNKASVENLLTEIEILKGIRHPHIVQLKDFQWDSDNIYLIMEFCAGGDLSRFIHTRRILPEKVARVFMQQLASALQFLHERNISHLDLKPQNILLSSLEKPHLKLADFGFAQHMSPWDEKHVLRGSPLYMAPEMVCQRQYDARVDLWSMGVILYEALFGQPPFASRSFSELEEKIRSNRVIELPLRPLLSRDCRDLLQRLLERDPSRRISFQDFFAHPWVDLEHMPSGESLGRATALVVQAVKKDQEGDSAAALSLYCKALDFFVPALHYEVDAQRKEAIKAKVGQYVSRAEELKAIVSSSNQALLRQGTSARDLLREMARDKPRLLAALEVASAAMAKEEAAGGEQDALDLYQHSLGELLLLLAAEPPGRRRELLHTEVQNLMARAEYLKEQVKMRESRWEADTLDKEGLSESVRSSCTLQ
Chain of Vascular endothelial growth factor receptor 2 (Homo sapiens) (P35968 whole entry): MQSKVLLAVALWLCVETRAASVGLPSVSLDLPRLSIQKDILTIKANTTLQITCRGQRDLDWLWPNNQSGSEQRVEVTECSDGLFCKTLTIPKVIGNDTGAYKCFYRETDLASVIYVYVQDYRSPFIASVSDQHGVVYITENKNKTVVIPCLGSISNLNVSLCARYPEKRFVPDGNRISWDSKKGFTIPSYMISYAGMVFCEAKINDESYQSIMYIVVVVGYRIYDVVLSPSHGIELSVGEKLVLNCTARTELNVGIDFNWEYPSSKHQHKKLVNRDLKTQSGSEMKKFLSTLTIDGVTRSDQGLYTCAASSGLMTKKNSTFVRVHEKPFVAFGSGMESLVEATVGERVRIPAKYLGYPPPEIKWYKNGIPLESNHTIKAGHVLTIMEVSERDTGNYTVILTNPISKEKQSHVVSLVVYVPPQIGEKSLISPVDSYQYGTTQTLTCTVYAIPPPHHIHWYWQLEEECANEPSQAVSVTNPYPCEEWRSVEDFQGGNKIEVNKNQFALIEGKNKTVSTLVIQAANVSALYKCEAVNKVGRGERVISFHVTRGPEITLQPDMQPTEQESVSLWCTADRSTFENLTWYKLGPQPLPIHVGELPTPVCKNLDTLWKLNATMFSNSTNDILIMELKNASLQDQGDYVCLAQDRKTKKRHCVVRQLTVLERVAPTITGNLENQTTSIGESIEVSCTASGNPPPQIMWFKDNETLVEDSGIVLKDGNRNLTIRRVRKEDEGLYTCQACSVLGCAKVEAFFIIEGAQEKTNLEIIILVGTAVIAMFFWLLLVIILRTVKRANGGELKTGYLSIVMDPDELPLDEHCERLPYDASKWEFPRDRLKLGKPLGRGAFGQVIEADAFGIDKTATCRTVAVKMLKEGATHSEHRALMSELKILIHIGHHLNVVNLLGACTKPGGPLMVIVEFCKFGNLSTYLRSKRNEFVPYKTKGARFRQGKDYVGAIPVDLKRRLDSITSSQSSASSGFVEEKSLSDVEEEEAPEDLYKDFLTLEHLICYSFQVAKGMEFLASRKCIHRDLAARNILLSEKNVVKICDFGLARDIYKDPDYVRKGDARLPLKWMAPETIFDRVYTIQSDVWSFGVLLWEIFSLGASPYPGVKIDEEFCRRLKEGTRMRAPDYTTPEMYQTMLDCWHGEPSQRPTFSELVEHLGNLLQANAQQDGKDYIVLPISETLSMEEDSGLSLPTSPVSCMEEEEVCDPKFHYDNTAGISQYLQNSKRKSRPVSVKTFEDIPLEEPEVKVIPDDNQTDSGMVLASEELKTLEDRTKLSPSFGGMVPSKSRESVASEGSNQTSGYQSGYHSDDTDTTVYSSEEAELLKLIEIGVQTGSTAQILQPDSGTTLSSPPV
Chain of Serine/threonine-protein kinase MAK (Homo sapiens) (P20794 whole entry): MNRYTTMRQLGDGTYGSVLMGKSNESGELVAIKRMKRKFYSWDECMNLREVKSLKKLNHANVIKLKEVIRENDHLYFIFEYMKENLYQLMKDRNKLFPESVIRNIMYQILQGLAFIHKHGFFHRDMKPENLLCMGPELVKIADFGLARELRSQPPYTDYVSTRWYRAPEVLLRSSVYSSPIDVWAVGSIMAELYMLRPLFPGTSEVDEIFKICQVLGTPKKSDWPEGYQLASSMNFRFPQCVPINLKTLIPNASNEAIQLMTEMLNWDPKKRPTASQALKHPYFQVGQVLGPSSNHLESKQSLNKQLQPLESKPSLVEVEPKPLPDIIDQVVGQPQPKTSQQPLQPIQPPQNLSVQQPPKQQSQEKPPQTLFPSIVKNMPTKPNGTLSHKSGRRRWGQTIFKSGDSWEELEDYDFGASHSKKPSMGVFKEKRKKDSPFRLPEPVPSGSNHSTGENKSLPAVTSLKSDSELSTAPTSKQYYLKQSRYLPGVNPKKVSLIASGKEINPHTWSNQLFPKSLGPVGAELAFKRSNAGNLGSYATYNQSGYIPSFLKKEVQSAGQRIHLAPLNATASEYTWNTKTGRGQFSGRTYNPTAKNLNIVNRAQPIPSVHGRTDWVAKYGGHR
Chain of Focal adhesion kinase 1 (Homo sapiens) (Q05397 2-1052 limits assumed): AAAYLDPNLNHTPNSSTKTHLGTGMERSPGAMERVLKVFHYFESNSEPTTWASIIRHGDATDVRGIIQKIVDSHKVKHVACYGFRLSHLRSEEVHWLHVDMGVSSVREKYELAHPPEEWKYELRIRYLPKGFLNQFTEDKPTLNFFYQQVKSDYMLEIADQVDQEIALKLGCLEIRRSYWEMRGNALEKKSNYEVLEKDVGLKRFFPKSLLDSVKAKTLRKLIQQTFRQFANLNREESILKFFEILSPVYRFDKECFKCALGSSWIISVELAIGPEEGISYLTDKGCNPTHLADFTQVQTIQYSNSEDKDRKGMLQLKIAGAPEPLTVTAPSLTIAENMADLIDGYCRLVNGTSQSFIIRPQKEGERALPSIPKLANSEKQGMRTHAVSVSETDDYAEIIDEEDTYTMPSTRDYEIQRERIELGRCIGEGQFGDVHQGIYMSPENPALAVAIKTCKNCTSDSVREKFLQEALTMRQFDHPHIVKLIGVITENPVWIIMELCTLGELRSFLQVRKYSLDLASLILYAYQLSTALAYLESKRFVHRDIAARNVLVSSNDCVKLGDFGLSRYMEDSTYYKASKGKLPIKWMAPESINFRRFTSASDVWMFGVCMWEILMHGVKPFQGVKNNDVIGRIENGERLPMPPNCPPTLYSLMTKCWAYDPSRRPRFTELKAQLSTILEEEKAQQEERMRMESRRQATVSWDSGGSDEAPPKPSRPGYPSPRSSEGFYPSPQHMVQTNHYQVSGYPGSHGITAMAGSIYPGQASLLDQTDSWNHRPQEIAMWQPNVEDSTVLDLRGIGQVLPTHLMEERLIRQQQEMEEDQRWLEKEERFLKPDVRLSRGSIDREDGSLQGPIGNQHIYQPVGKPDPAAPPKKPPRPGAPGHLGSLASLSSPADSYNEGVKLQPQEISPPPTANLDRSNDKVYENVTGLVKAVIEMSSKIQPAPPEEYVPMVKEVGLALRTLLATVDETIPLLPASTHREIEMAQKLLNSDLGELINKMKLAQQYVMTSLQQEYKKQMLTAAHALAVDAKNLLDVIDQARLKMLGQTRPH
Chain of Megakaryocyte-associated tyrosine-protein kinase (Homo sapiens) (P42679 whole entry): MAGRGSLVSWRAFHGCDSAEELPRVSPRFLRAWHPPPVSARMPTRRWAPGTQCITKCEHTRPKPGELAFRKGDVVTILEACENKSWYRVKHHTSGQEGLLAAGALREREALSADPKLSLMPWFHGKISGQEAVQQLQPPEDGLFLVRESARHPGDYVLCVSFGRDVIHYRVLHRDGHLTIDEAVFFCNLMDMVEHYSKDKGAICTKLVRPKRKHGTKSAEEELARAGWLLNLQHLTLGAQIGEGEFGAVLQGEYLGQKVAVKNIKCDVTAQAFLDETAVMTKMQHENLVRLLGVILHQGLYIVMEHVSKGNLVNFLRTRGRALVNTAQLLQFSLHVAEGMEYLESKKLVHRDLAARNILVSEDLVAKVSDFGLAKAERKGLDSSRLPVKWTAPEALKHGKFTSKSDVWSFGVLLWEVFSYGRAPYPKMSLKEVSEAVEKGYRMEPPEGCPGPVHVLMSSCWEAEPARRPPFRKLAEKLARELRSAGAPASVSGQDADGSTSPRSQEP
Chain of Casein kinase I isoform epsilon (Homo sapiens) (P49674 whole entry, looked up, canonical isoform): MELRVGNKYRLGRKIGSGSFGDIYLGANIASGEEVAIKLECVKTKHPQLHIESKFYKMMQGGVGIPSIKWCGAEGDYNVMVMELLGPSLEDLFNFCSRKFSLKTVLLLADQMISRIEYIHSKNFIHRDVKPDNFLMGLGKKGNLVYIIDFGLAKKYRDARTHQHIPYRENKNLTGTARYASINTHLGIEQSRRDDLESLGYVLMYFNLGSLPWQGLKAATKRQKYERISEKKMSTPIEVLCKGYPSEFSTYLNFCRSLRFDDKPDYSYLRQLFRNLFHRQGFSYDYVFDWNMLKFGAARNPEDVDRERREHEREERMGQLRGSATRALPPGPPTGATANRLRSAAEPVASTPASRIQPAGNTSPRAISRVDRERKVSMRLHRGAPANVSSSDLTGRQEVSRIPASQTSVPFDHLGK
Chain of Cyclin-dependent kinase 17 (Homo sapiens) (Q00537 whole entry, looked up): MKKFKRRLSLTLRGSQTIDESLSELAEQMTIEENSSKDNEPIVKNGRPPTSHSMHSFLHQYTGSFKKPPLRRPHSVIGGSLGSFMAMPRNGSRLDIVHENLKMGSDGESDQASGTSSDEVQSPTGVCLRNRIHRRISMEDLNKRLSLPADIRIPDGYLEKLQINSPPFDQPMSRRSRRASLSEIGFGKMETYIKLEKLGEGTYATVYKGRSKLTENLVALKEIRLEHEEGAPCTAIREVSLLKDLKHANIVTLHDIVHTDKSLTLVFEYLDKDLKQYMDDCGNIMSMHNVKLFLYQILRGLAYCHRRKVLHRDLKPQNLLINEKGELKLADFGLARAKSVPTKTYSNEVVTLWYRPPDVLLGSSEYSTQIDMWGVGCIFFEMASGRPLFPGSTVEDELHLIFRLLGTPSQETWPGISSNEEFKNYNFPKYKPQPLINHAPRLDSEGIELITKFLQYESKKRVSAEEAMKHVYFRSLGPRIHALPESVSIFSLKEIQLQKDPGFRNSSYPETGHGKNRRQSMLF

CC(=O)N1CCC(c2ccc(C(=O)NC3=NCCN3)cc2C(F)(F)F)CC1 [BI 0054]
active: residual activity [21] 17%
inactive: inhibition [1] 1.01% | residual activity [2] 100% | residual activity [3] 100% | residual activity [4] 75% | residual activity [5] 100% | residual activity [6] 100% | residual activity [7] 94% | residual activity [8] 92% | residual activity [9] 100% | residual activity [10] 100% | residual activity [11] 98% | residual activity [12] 100% | residual activity [13] 100% | residual activity [14] 94% | residual activity [15] 100% | residual activity [16] 89% | residual activity [17] 81% | residual activity [18] 61% | residual activity [19] 100% | residual activity [20] 100% | residual activity [22] 71% | residual activity [23] 100% | residual activity [24] 99% | residual activity [25] 100% | residual activity [26] 100% | residual activity [27] 76% | residual activity [28] 80% | residual activity [29] 100% | residual activity [30] 100% | residual activity [31] 93% | residual activity [32] 100% | residual activity [33] 100% | residual activity [34] 100% | residual activity [35] 89% | residual activity [36] 100% | residual activity [37] 100% | residual activity [38] 100% | residual activity [39] 100% | residual activity [40] 100% | residual activity [41] 100% | residual activity [42] 100% | residual activity [43] 100% | residual activity [44] 98% | residual activity [45] 100%

CC(=O)N1CCC(c2ccc(C(=O)NC(=N)N)cc2C(F)(F)F)CC1 [BI 9627]
inactive: inhibition [1] 6.29% | residual activity [2] 100% | residual activity [3] 95% | residual activity [4] 83% | residual activity [5] 100% | residual activity [6] 100% | residual activity [7] 100% | residual activity [8] 93% | residual activity [9] 100% | residual activity [10] 100% | residual activity [11] 100% | residual activity [12] 100% | residual activity [13] 100% | residual activity [14] 100% | residual activity [15] 100% | residual activity [16] 100% | residual activity [17] 98% | residual activity [18] 79% | residual activity [19] 100% | residual activity [20] 100% | residual activity [21] 100% | residual activity [22] 73% | residual activity [23] 100% | residual activity [24] 100% | residual activity [25] 100% | residual activity [26] 87% | residual activity [27] 100% | residual activity [28] 93% | residual activity [29] 100% | residual activity [30] 100% | residual activity [31] 92% | residual activity [32] 100% | residual activity [33] 100% | residual activity [34] 100% | residual activity [35] 80% | residual activity [36] 100% | residual activity [37] 96% | residual activity [38] 82% | residual activity [39] 100% | residual activity [40] 100% | residual activity [41] 100% | residual activity [42] 100% | residual activity [43] 87% | residual activity [44] 100% | residual activity [45] 100%
